Patent US10287267B2, “Isoquinolin-3-yl carboxamides and preparation and use thereof” (Samumed, LLC, priority 2016, dated 2019)

Key:
[1] = system: Wnt pathway (Sp5-Luc reporter, TCF/LEF binding sites) in SW480 colon carcinoma cells; assay: Screening assay for Wnt activity: Sp5-Luc reporter gene assay; assay type: cell-based, human; conditions: Homo sapiens; Sp5-Luc reporter, SW480 cells, 36 to 48 hours;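 note: firefly luciferase luminescence read in stably transduced SW480 cells carrying the Sp5 promoter reporter with eight TCF/LEF sites, compounds given in 0.1% DMSO final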
Method: The screening assay for Wnt activity is described as follows.
Following incubation, 15 μl of BriteLite Plus luminescence reagent (Perkin Elmer) was added to each well of the 384-well assay plates. The plates were placed on an orbital shaker for 2 min and then luminescence was quantified using the Envision (Perkin Elmer) plate reader.

[2] = biological target: recombinant DYRK1A kinase (Homo sapiens (Human), UniProt Q13627); assay: DYRK1A kinase assay (Ser/Thr 18 peptide Z-lyte FRET); assay type: biochemical; conditions: 30 μM ATP, 1 h room temperature;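 note: Read-out is the coumarin to fluorescein emission ratio, referenced to unphosphorylated (0%) and phosphorylated (100%) Ser/Thr 18 peptide controls, values from dose-response curves by non-linear regression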
[3] = biological target: recombinant GSK3β kinase (Homo sapiens (Human), UniProt P49841); assay: GSK3β kinase assay (Ser/Thr 09 peptide Z-lyte FRET); assay type: biochemical; conditions: 46 μM ATP, 1 h room temperature;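 note: kinase activity read as coumarin to fluorescein emission ratio, 11-point threefold dilutions from 10 µM to 0.0003 µM in duplicate, unphosphorylated and phosphorylated peptide as 0% and 100% controls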
Chain of recombinant GSK3β kinase (P49841 whole entry): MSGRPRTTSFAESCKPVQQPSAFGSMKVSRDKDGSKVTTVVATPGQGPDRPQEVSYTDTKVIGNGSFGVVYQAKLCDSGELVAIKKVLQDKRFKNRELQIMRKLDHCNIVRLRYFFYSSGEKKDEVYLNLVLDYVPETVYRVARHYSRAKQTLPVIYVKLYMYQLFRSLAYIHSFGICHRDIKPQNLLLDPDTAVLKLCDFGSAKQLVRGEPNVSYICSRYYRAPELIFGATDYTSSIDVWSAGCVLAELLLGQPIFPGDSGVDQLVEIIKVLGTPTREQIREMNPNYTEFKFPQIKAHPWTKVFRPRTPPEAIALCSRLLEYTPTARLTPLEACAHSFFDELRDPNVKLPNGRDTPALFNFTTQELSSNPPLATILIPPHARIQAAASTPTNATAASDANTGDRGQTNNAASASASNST

[4] = system: Tau phosphorylation at Ser396 (pSer396); assay: Tau phosphorylation assay (pSer396 ELISA / western blot) in SH-SY5Y cells; assay type: cell-based, human; conditions: Homo sapiens; SH-SY5Y cells, overnight (16-18 h) exposure; read-out: pSer396 Tau EC50;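 note: EC50 for reduction of Tau pSer396 in lysed cells, measured by colorimetric ELISA or chemiluminescent western blot, both using the same pSer396 antibody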
[5] = system: SW480 colon carcinoma cells; assay: Cell viability assay (CellTiter-Glo); assay type: cell-based, human; conditions: Homo sapiens, 96 h; SW480 cells, CellTiter-Glo, four days incubation
[6] = system: α-smooth muscle actin (αSMA) positive LL29 cells; assay: Inhibition of fibrotic process: αSMA in TGF-β1 treated primary human fibroblasts from IPF patients; assay type: cell-based; conditions: Homo sapiens, Fibroblast; for EC50: 96 h, Table 8, LL29 fibroblasts from IPF patients, TGF-β1 20 ng/mL, 4 days, dose-response 10 μM to 0.94 nM; for inhibition at 10 µM: read-out: percent value in parentheses beside EC50 >10 μM;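 for all read-outs here: controls were TGF-β1 stimulated wells with DMSO vehicle (positive) and cells given DMSO alone (negative), cultured in F12 medium with 1% fetal bovine serum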
[7] = system: IL-6; assay: IL-6 inhibition in LPS-stimulated human peripheral blood mononuclear cells (HTRF); assay type: cell-based; conditions: Homo sapiens, PBMC; for EC50: Table 9, huPBMCs, LPS 50 ng/mL, 22 hours, dose-response starting from 10 μM; for inhibition at 10 µM: read-out: percent value in parentheses beside EC50 >10 μM;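 for all read-outs here: IL-6 detected by HTRF with an XL665- and Cryptate-labelled anti-IL-6 antibody pair, samples run in duplicate, EC50 obtained from a four-parameter Levenberg-Marquardt curve fit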
Method: After 22 hour incubation, a mixture of anti-IL6 XL665 and anti-IL-6 Cryptate diluted in reconstitution buffer (Catalog #62IL6PEC, Cisbio Inc., Bedford, Mass.) was added to each well. […] All samples were processed in duplicate. […] EC50 was determined using software generated by Dotmatics Limited (Windhill Bishops Stortford Herts, UK) using the Levenberg-Marquardt 4 parameter fitting procedure with finite different gradients.

Row | Compound | EC50 [1] [µM] | EC50 [2] [µM] | EC50 [3] [µM] | EC50 [4] [µM] | EC50 [5] [µM] | EC50 [6] [µM] | EC50 [7] [µM] | inhibition at 10 µM [6] [%] | inhibition at 10 µM [7] [%]
1 | Cn1cc(-c2ccc3cnc(NC(=O)C4CCC(F)(F)CC4)cc3c2)cn1 [Compound 3, 4,4-Difluoro-N-(6-(1-methyl-1H-pyrazol-4-yl)isoquinolin-3-yl) cyclohexanecarboxamide] | 1.7 | 0.0037 | 0.038 | 0.288 | 2.8 | 0.103 | 0.792 | – | –
2 | CO[C@H]1CC[C@H](C(=O)Nc2cc3cc(-c4cnn(C)c4)ccc3cn2)CC1 [Compound 4, trans-4-Methoxy-N-(6-(1-methyl-1H-pyrazol-4-yl)isoquinolin-3-yl) cyclohexane-1-carboxamide] | 0.983 | 0.0018 | 0.08 | 0.671 | 1.94 | 0.068 | 1.13 | – | –
3 | Cn1cc(-c2ccc3cnc(NC(=O)[C@H]4CC[C@H](N5CCOCC5)CC4)cc3c2)cn1 [Compound 6, trans-N-(6-(1-Methyl-1H-pyrazol-4-yl)isoquinolin-3-yl)-4-morpholinocyclohexane-1-carboxamide] | 1.11 | 0.0013 | 0.065 | 0.475 | 1.26 | > 10 | 1.29 | 45.6 | –
4 | Cn1cc(-c2ccc3cnc(NC(=O)[C@H]4CC[C@H](CN5CC(F)C5)CC4)cc3c2)cn1 [Compound 10, trans-4-((3-Fluoroazetidin-1-yl)methyl)-N-(6-(1-methyl-1H-pyrazol-4-yl)isoquinolin-3-yl)cyclohexane-1-carboxamide] | 0.277 | 0.0013 | 0.051 | 0.227 | 0.324 | > 10 | 0.399 | 39.6 | –
5 | CN1CCN(C[C@H]2CC[C@H](C(=O)Nc3cc4cc(-c5cnn(C)c5)ccc4cn3)CC2)CC1 [Compound 14, trans-N-(6-(1-Methyl-1H-pyrazol-4-yl)isoquinolin-3-yl)-4-((4-methylpiperazin-1-yl)methyl)cyclohexane-1-carboxamide] | 0.354 | 0.0015 | 0.059 | 0.408 | 0.898 | 0.035 | 0.643 | – | –
6 | Cn1cc(-c2ccc3cnc(NC(=O)C4CNC4)cc3c2)cn1 [Compound 16, N-(6-(1-Methyl-1H-pyrazol-4-yl)isoquinolin-3-yl)azetidine-3-carboxamide] | > 10 | 0.0039 | 0.024 | > 10 | 7.84 | 1.27 | 2.17 | – | –
7 | Cn1cc(-c2ccc3cnc(NC(=O)CN4CC[C@H](F)C4)cc3c2)cn1 [Compound 69, (S)-2-(3-Fluoropyrrolidin-1-yl)-N-(6-(1-methyl-1H-pyrazol-4-yl)isoquinolin-3-yl)acetamide] | 3.7 | 0.0062 | 0.013 | 0.383 | 3.93 | 0.394 | 2.16 | – | –
8 | Cn1cc(-c2ccc3cnc(NC(=O)[C@@H]4CCCO4)cc3c2)cn1 [Compound 71, (S)—N-(6-(1-Methyl-1H-pyrazol-4-yl)isoquinolin-3-yl)tetrahydrofuran-2-carboxamide] | 3.9 | 0.0136 | 0.062 | 1.51 | 8.1 | > 10 | 6.73 | 33.4 | –
9 | CC(C)N1CCC(C(=O)Nc2cc3cc(-c4cnn(C)c4)ccc3cn2)CC1 [Compound 75, 1-Isopropyl-N-(6-(1-methyl-1H-pyrazol-4-yl)isoquinolin-3-yl)piperidine-4-carboxamide] | 0.52 | 0.0026 | 0.064 | 0.227 | 1.32 | 0.148 | 0.806 | – | –
10 | Cn1cc(-c2ccc3cnc(NC(=O)CN4CCC(C(F)F)CC4)cc3c2)cn1 [Compound 295, 2-(4-(Difluoromethyl)piperidin-1-yl)-N-(6-(1-methyl-1H-pyrazol-4-yl)isoquinolin-3-yl)acetamide] | 2.57 | 0.0028 | 0.02 | 0.43 | – | 4.46 | > 10 | – | 5.9
11 | O=C(Nc1cc2cc(-c3cnco3)ccc2cn1)C1CCOCC1 [Compound 976, N-(6-(Oxazol-5-yl)isoquinolin-3-yl)tetrahydro-2H-pyran-4-carboxamide] | 2.96 | 0.0061 | 0.146 | 0.536 | 3.88 | 1.17 | – | – | –
12 | Cn1cc(-c2ccc3cnc(NC(=O)OC(C)(C)C)cc3c2)cn1 [Compound 1025, tert-Butyl (6-(1-methyl-1H-pyrazol-4-yl)isoquinolin-3-yl)carbamate] | > 10 | 0.078 | 0.1 | > 10 | – | > 10 | > 10 | 31.4 | 13.6
13 | Cn1cc(-c2ccc3cnc(NC(=O)CN4CCC(O)CC4)cc3c2)cn1 [Compound 1078, 2-(4-Hydroxypiperidin-1-yl)-N-(6-(1-methyl-1H-pyrazol-4-yl)isoquinolin-3-yl)acetamide] | 4.03 | 0.006 | 0.07 | 0.458 | 4.41 | – | 3.24 | – | –
14 | CC(C)CN1CCCC(C(=O)Nc2cc3cc(-c4cnn(C)c4)ccc3cn2)CC1 (stereo not drawn) [Compound 1079, 1-Isobutyl-N-(6-(1-methyl-1H-pyrazol-4-yl)isoquinolin-3-yl)azepane-4-carboxamide] | 1.43 | 0.0057 | 0.048 | 0.19 | 2.6 | – | 1.21 | – | –
15 | CN1CCCC(C(=O)Nc2cc3cc(-c4cnn(C)c4)ccc3cn2)CC1 (stereo not drawn) [Compound 1080, 1-Methyl-N-(6-(1-methyl-1H-pyrazol-4-yl)isoquinolin-3-yl)azepane-4-carboxamide] | 1.22 | 0.0032 | 0.056 | 0.251 | 1.38 | – | 1.07 | – | –
16 | Cc1ncc(-c2ccc3cnc(NC(=O)[C@H]4CC[C@H](N(C)C)CC4)cc3c2)o1 [Compound 1082, trans-4-(Dimethylamino)-N-(6-(2-methyloxazol-5-yl)isoquinolin-3-yl) cyclohexane-1-carboxamide] | 9.9 | 0.0102 | 0.21 | 1.1 | 7.1 | – | 2.93 | – | –
17 | CN1CCN(CC23CC(C(=O)Nc4cc5cc(-c6cnn(C)c6)ccc5cn4)(C2)C3)CC1 [Compound 1088, N-(6-(1-Methyl-1H-pyrazol-4-yl)isoquinolin-3-yl)-3-((4-methylpiperazin-1-yl)methyl)bicyclo[1.1.1]pentane-1-carboxamide] | 7.4 | 0.0093 | 0.937 | 8.6 | 9.19 | – | 5.98 | – | –
18 | CN1CCC(NC(=O)Nc2cc3cc(-c4cnn(C)c4)ccc3cn2)CC1 [Compound 1090, 1-(6-(1-Methyl-1H-pyrazol-4-yl)isoquinolin-3-yl)-3-(1-methylpiperidin-4-yl)urea] | 0.722 | 0.0069 | 0.288 | 0.969 | 0.994 | – | 0.484 | – | –
